Consider 20 compounds from patent US20250136722A1, “CYTOTOXICITY TARGETING CHIMERAS” (GLAXOSMITHKLINE INTELLECTUAL PROPERTY DEVELOPMENT LIMITED, priority 2021, published 2025).

This assay deals with T1, CHOK1 cells engineered to overexpress human CCR2 (Homo sapiens, UniProt P41597).
T1 construct: expressed in transfected cells; host or cells: CHOK1 cells
Put plainly: Antibody dependent cellular cytotoxicity (ADCC) reporter assay (Example 199). It is filed as cell-based. Particulars: with anti-cotinine antibody SEQ ID NO: 11/12; CHOK1-human CCR2 target cells, Jurkat FcγRIIIa NFAT-luciferase reporter cells; 12-18 hours; read-out: ADCC Reporter Assay pEC50 (converted). The method, then: An antibody dependent cellular cytoxicity reporter assay was conducted using the following four assay components: (i) ARM compound of Formula (I) targeting CCR2 (concentrations ranging from 1 pM to 10 μM) (ii) anti-cotinine antibody having a heavy chain sequence of SEQ ID NO: 11 and a light chain sequence of SEQ ID NO: 12 (rabbit variable region with human IgG1 Fc domain containing a DE mutation (S239D/1332E)) (concentrations ranging from 0.01 μg/mL to 200 μg/mL); (iii) target cells: CHOK1 cells engineered to overexpress either human CCR2 (typically 1000-20,000 cells per well) and (iv) reporter cells: Jurkat cells engineered to express FcγRIIIa with the reporter gene luciferase under the control of the NFAT promoter (typically 3000-75,000 cells per well). Reagents were combined in a final volume of 20 μL in a 384-well tissue culture treated plate. All four assay components were incubated together for about 12-18 hours. Thereafter, BioGlo Detection reagent (Promega) was added to the wells to lyse the cells and provide a substrate for the luciferase reporter protein. Luminescence signal was measured on a microplate reader and signal:background was calculated by dividing the signal of a test well by the signal obtained when no heterobivalent compound of Formula (I) was added. EC50 calculations were done using Graphpad Prism Software, specifically a nonlinear regression curve fit (Y=Bottom+(Top−Bottom)/(1+10^((Log EC50−X)*HillSlope))).
ARMs compounds of Formula (I) of the invention were tested for ADCC activity in the above assay in or more experimental runs and the results are shown in Table 3 below. Potency of the compounds of Formula (I) of the invention is reported as a pEC50 value. The pEC50 value is the negative log of the EC50 value, wherein the EC50 value is the half maximal effective concentration measured in molar (M). For compounds tested in more than one experimental run, the pEC50 value is reported as an average.

As for `CC(C)N(C)[C@@H]1CC[C@H](N2CC[C@H](Nc3ncnc4ccc(C(F)(F)F)cc34)C2=O)[C@H](NC(=O)[C@H]2CC[C@H](N3CCN(C(=O)CCOCCOCCNC(=O)[C@H]4CC(=O)N(C)[C@@H]4c4cccnc4)CC3)CC2)C1` [Example 96, (2S,3S)-N-(2-(2-(3-(4-((1R,4r)-4-(((1R,2S,5R)-5-(Isopropyl(methyl)amino)-2-((S)-2-oxo-3-((6-(trifluoromethyl)quinazolin-4-yl)amino)pyrrolidin-1-yl)cyclohexyl)carbamoyl)cyclohexyl)piperazin-1-yl)-3-oxopropoxy)ethoxy)ethyl)-1-methyl-5-oxo-2-(pyridin-3-yl)pyrrolidine-3-carboxamide], the EC50 is 6.31 nM.

Take `CC(C)N(C)[C@@H]1CC[C@H](N2CC[C@H](Nc3ncnc4ccc(C(F)(F)F)cc34)C2=O)[C@H](NC(=O)[C@H]2CC[C@H](N3CCN(C4CC(CCNC(=O)[C@H]5CC(=O)N(C)[C@@H]5c5cccnc5)C4)CC3)CC2)C1` (stereo partly drawn) [Example 97, (2S,3S)-N-(2-(3-(4-((1R,4S)-4-(((1R,2S,5R)-5-(Isopropyl(methyl)amino)-2-((S)-2-oxo-3-((6-(trifluoromethyl)quinazolin-4-yl)amino)pyrrolidin-1-yl)cyclohexyl)carbamoyl)cyclohexyl)piperazin-1-yl)cyclobutyl)ethyl)-1-methyl-5-oxo-2-(pyridin-3-yl)pyrrolidine-3-carboxamide]: the EC50 is 6.31 nM.

Take `CN1C(=O)C[C@H](C(=O)NCCOCC(=O)NCCOCC(=O)N[C@H]2CC[C@@H](C(=O)N[C@@H]3C[C@H](NC(C)(C)C)CC[C@@H]3N3CC[C@H](Nc4ncnc5ccc(C(F)(F)F)cc45)C3=O)CC2)[C@H]1c1cccnc1` [Example 100]: the EC50 was 1.2 nM.

On to `CC(C)N(C)[C@@H]1CC[C@H](N2CC[C@H](Nc3ncnc4ccc(C(F)(F)F)cc34)C2=O)[C@H](NC(=O)[C@H]2CC[C@@H](NC(=O)CCOCCNC(=O)CCOCCCNC(=O)[C@H]3CC(=O)N(C)[C@@H]3c3cccnc3)CC2)C1` [Example 101], for which the EC50 is 0.278 nM.

`CN1C(=O)C[C@H](C(=O)NCCOCC(=O)NCCOCCC(=O)NCCOCCC(=O)N[C@@H]2C[C@H](NC(C)(C)C)CC[C@@H]2N2CC[C@H](Nc3ncnc4ccc(C(F)(F)F)cc34)C2=O)[C@H]1c1cccnc1` [Example 106]: the EC50 is 0.558 nM.

For `CC(C)N(C)[C@@H]1CC[C@H](N2CC[C@H](Nc3ncnc4ccc(C(F)(F)F)cc34)C2=O)[C@H](NC(=O)[C@H]2CC[C@H](NC(=O)CCO[C@H]3CC[C@@H](OCCNC(=O)[C@H]4CC(=O)N(C)[C@@H]4c4cccnc4)CC3)CC2)C1` [Example 114], the EC50 was 5.77 nM.

`CC(C)N(C)[C@@H]1CC[C@H](N2CC[C@H](Nc3ncnc4ccc(C(F)(F)F)cc34)C2=O)[C@H](NC(=O)[C@H]2C[C@H](NC(=O)CCO[C@H]3CC[C@@H](OCCNC(=O)[C@H]4CC(=O)N(C)[C@@H]4c4cccnc4)CC3)C2)C1` [Example 116]: the EC50 was 5.01 nM.

With `CC(C)N(C)[C@@H]1CC[C@H](N2CC[C@H](Nc3ncnc4ccc(C(F)(F)F)cc34)C2=O)[C@H](NC(=O)[C@H]2C[C@H](NC(=O)CCO[C@H]3CC[C@H](OCCNC(=O)[C@H]4CC(=O)N(C)[C@@H]4c4cccnc4)CC3)C2)C1` [Example 117], the EC50 was 0.316 nM.

Regarding `CC(C)N(C)[C@@H]1CC[C@H](N2CC[C@H](Nc3ncnc4ccc(C(F)(F)F)cc34)C2=O)[C@H](NC(=O)CCOCCOCCNC(=O)[C@@H]2CCCN2CCOCCNC(=O)[C@H]2CC(=O)N(C)[C@@H]2c2cccnc2)C1` [Example 118, (S)-N-(2-(2-(3-(((1R,2S,5R)-5-(Isopropyl(methyl)amino)-2-((S)-2-oxo-3-((6-(trifluoromethyl)quinazolin-4-yl)amino)pyrrolidin-1-yl)cyclohexyl)amino)-3-oxopropoxy)ethoxy)ethyl)-1-(2-(2-((2S,3S)-1-methyl-5-oxo-2-(pyridin-3-yl)pyrrolidine-3-carboxamido)ethoxy)ethyl)pyrrolidine-2-carboxamide], the EC50 is 3.98 nM.

For the compound `CN1C(=O)C[C@H](C(=O)NCCOCCOCCC(=O)N[C@H]2CC[C@@H](C(=O)N[C@@H]3C[C@H](NC(C)(C)C)CC[C@@H]3N3CC[C@H](Nc4ncnc5ccc(C(F)(F)F)cc45)C3=O)CC2)[C@H]1c1cccnc1` [Example 120, (2S,3S)-N-(2-(2-(3-(((1S,4s)-4-(((1R,2S,5R)-5-(tert-Butylamino)-2-((S)-2-oxo-3-((6-(trifluoromethyl)quinazolin-4-yl)amino)pyrrolidin-1-yl)cyclohexyl)carbamoyl)cyclohexyl)amino)-3-oxopropoxy)ethoxy)ethyl)-1-methyl-5-oxo-2-(pyridin-3-yl)pyrrolidine-3-carboxamide], the EC50 was 5.46 nM.

As for `CC(C)N(C)[C@@H]1CC[C@H](N2CC[C@H](Nc3ncnc4ccc(C(F)(F)F)cc34)C2=O)[C@H](NC(=O)c2cccc(NCCOCCOCCOCCOCCNC(=O)[C@H]3CC(=O)N(C)[C@@H]3c3cccnc3)n2)C1` [Example 123, N-((1R,2S,5R)-5-(Isopropyl(methyl)amino)-2-((S)-2-oxo-3-((6-(trifluoromethyl)quinazolin-4-yl)amino)pyrrolidin-1-yl)cyclohexyl)-6-((1-((2S,3S)-1-methyl-5-oxo-2-(pyridin-3-yl)pyrrolidin-3-yl)-1-oxo-5,8,11,14-tetraoxa-2-azahexadecan-16-yl)amino)picolinamide], the EC50 is 5.01 nM.

For `CC(C)N(C)[C@@H]1CC[C@H](N2CC[C@H](Nc3ncnc4ccc(C(F)(F)F)cc34)C2=O)[C@H](NC(=O)c2cccc(NCCOCCOCCOCCOCCOCCNC(=O)[C@H]3CC(=O)N(C)[C@@H]3c3cccnc3)n2)C1` [Example 124], the EC50 was 2 nM.

As for `CC(C)N(C)[C@@H]1CC[C@H](N2CC[C@H](Nc3ncnc4ccc(C(F)(F)F)cc34)C2=O)[C@H](NC(=O)c2ccc(NCCOCCOCCOCCOCCNC(=O)[C@H]3CC(=O)N(C)[C@@H]3c3cccnc3)nn2)C1` [Example 125], the EC50 was 3.16 nM.

On to `CC(C)N(C)[C@@H]1CC[C@H](N2CC[C@H](Nc3ncnc4ccc(C(F)(F)F)cc34)C2=O)[C@H](NC(=O)c2ccnc(NCCOCCOCCOCCOCCNC(=O)[C@H]3CC(=O)N(C)[C@@H]3c3cccnc3)c2)C1` [Example 126], for which the EC50 was 1.58 nM.

In the case of `CC(C)N(C)[C@@H]1CC[C@H](N2CC[C@H](Nc3ncnc4ccc(C(F)(F)F)cc34)C2=O)[C@H](NC(=O)c2cc(NCCOCCOCCOCCOCCNC(=O)[C@H]3CC(=O)N(C)[C@@H]3c3cccnc3)ncn2)C1` [Example 127], the EC50 was 1 nM.

Turning to `CC(C)N(C)[C@@H]1CC[C@H](N2CC[C@H](Nc3ncnc4ccc(C(F)(F)F)cc34)C2=O)[C@H](NC(=O)c2ccc(NCCOCCOCCOCCOCCNC(=O)[C@H]3CC(=O)N(C)[C@@H]3c3cccnc3)nc2)C1` [Example 128, N-((1R,2S,5R)-5-(Isopropyl(methyl)amino)-2-((S)-2-oxo-3-((6-(trifluoromethyl)quinazolin-4-yl)amino)pyrrolidin-1-yl)cyclohexyl)-6-((1-((2S,3S)-1-methyl-5-oxo-2-(pyridin-3-yl)pyrrolidin-3-yl)-1-oxo-5,8, 11, 14-tetraoxa-2-azahexadecan-16-yl)amino)nicotinamide], the EC50 is 1 nM.

`CC(C)N(C)[C@@H]1CC[C@H](N2CC[C@H](Nc3ncnc4ccc(C(F)(F)F)cc34)C2=O)[C@H](NC(=O)c2cnn(C3CCN(CCOCCOCCOCCNC(=O)[C@H]4CC(=O)N(C)[C@@H]4c4cccnc4)CC3)c2)C1` [Example 129, N-((1R,2S,5R)-5-(Isopropyl(methyl)amino)-2-((S)-2-oxo-3-((6-(trifluoromethyl)quinazolin-4-yl)amino)pyrrolidin-1-yl)cyclohexyl)-1-(1-(1-((2S,3S)-1-methyl-5-oxo-2-(pyridin-3-yl)pyrrolidin-3-yl)-1-oxo-5,8,11-trioxa-2-azatridecan-13-yl)piperidin-4-yl)-1H-pyrazole-4-carboxamide]: the EC50 is 5.01 nM.

For `CC(C)N(C)[C@@H]1CC[C@H](N2CC[C@H](Nc3ncnc4ccc(C(F)(F)F)cc34)C2=O)[C@H](NC(=O)C2CCC(N3CC(C(=O)NCCOCCOCCNC(=O)[C@H]4CC(=O)N(C)[C@@H]4c4cccnc4)C3)CC2)C1` (some centres unmarked) [Example 131], the EC50 was 3.16 nM.

`CC(C)N(C)[C@@H]1CC[C@H](N2CC[C@H](Nc3ncnc4ccc(C(F)(F)F)cc34)C2=O)[C@H](NC(=O)[C@H]2CC[C@@H](N3CCC(C(=O)NCCOCCOCCNC(=O)[C@H]4CC(=O)N(C)[C@@H]4c4cccnc4)C(F)(F)C3)CC2)C1` (some centres unmarked) [Example 132]: the EC50 is 3.16 nM.

For `CC(C)N(C)[C@@H]1CC[C@H](N2CC[C@H](Nc3ncnc4ccc(C(F)(F)F)cc34)C2=O)[C@H](NC(=O)c2ccc([C@H]3CC[C@@H](C(=O)NCCOCCOCCNC(=O)[C@H]4CC(=O)N(C)[C@@H]4c4cccnc4)CC3)cc2)C1` [Example 133], the EC50 was 5.01 nM.
